Assays:
Aged C57BL/6J mice [1] = experiment: Oral glucose tolerance test (oGTT) in aged mice; assay type: in vivo, C57BL/6JRj mice; conditions: 1 mg/kg in the food, week 17
Protocol: For OGTT, mice underwent an overnight fast, and on the morning of the experiment, they were administered a gavage consisting of a 20% glucose solution in water (10 mL [2 g]/kg body weight). Blood glucose levels were monitored from the tail vein using a glucometer prior to the gavage and at 15, 30, 45, 60, 90, 120, 150, and 180 min thereafter. Additionally, blood samples were collected at 0 min (pregavage), 15 and 30 min to assess fasting insulin levels and glucose-stimulated insulin secretion. oGTT was performed 17 weeks post experiment onset as indicated in Figure 2A.

Aged C57BL/6J mice [2] = experiment: Rotarod test; assay type: in vivo, C57BL/6JRj mice; conditions: 1 mg/kg in the food, week 9
Protocol: The rotarod test assesses muscle strength, coordination, and endurance.[32] Mice were allowed to acclimate in the room for 30 min. […] Each mouse underwent three trials per day for three consecutive days. The latency at which the mouse either reached passive rotation or fell from the rotor was recorded. The results presented here focus on the latency of the best trial conducted on the second day.

Aged C57BL/6J mice [3] = experiment: CK level after 90 min downhill running; assay type: in vivo, C57BL/6JRj mice; conditions: 1 mg/kg in the food, week 15, trend for improvement
Protocol: Figure 2 Chronic oral administration of ALT-007 enhances physical fitness in aged mice. (A) Schematic representation of the study time-line. Compounds were mixed in the food, ALT-007 at 1 mg/kg and DMSO at equivalent volume. At week 0: young mice were 2 months old, and the old mice were 18 months old. (B) Body weight curve over the course of the study (20 weeks). (C) Food intake curve throughout the study. (D–G) Organ mass at sacrifice (week 20), normalized to body weight. (H) Oral glucose tolerance test (oGTT) performed at week 17. (I) Best performance during hanging time normalized to BW at week 7. (J) Best performance during grip strength on the 4 limbs normalized to BW at week 8. (K) Rotarod’s best latency time at week 9. (L) VO2Max performed at week 11. (M) Uphill maximum running time performed at week 13. N = 9 per group. (N) Difference of CK level after—before 90 min downhill running performed at week 15. N = 6 in young, N = 8 in DMSO and N = 7 in ALT-007-treated groups. (O–Q) Measurement of kCAL/h at night (O) and at day (P) and movement recording in x, y, z (Q) during 24 h in CLAMS at week 19. N = 12 per group unless specified otherwise. Quantitative data are expressed as median with IQR. *P < 0.05, **P < 0.01, ***P < 0.001, ****P < 0.0001. ANOVA test was used for multiple comparison, and the Mann–Whitney U test when comparing 2 groups. All tests were 2 sided.

[4] = test system: gastrocnemius muscles of aged mice; experiment: RNAseq / gene set enrichment analysis of gastrocnemius muscle of aged mice; assay type: in vivo, C57BL/6JRj mice
Protocol: Figure 3 ALT-007 preserves muscle mass and rewires skeletal muscle gene expression during aging. (A) Lean mass measured by echoMRI after 11 weeks of treatment (ALT-007:1 mg/kg; DMSO: equivalent volume, for 20 weeks). (B) Gastrocnemius and (C) Tibialis anterior muscle weight after 20 weeks of treatment. N = 12 per group. (D) Total ceramide levels measured in the gastrocnemius muscle. (E) Volcano plot of mitochondrial, proteostasis, amino acids, biosynthetic processes, and neuronal-related gene sets highlighted. (F,G) Gene set enrichment analysis (GSEA) of (F) pathways involved in protein folding and degradation and (G) neurogenesis pathways in the skeletal muscle of mice treated with ALT-007 (N = 5 in DMSO and N = 4 in ALT-007-treated groups). Adjusted P values in GSEA comparison are indicated as follows: *adjusted P < 0.05; **adjusted P < 0.01; ***adjusted P < 0.001.
RNA seq analysis was performed as previously described. Changes in cell composition were assessed by gene set enrichment analysis (GSEA) with the clusterProfiler package (Yu G. et al., 2012) and the MsigDB v7.5.1 mouse cell type signature set, accessed through the msigdbr package was performed. Only the gene sets relevant to skeletal muscle and neuronal cell types were retained.
1.2. Supplementary Figure 2
Gene set enrichment analysis using the MsigDB mouse cell type signature sets. Only the gene sets relevant to skeletal muscle and neuronal cell types were retained.
GSEA was performed with the cluserProfiler package and gene sets were accessed through the MsigDBr package.
(1 picture or pasted object on this page, not shown here)

[5] = design: method as in PMID 29669694; conditions: compared to Myriocin; cited from earlier work
[6] = gastrocnemius of aged mice, ALT-007 vs DMSO

Question: For `COc1cc(C(=O)N2CC[C@H](NC(=O)c3ccccc3OC(F)(F)F)c3c2cnn3C(C)C)cnc1OC` [ALT-007], which glucose tolerance test (Aged C57BL/6J mice [1]) is on record?
Answer: Its glucose tolerance test is “no difference”.

Question: What about the “coordination measured by the rotarod test” value (Aged C57BL/6J mice [2]) of the same compound?
Answer: Its value is “improved”.

Question: What about the “creatine kinase in the blood after a downhill running test” value (Aged C57BL/6J mice [3]) of the same compound?
Answer: The value was “nor did it reduce”.

Question: What about the “neurogenesis pathways in the muscle, GSEA” value [4, 6] of the same compound?
Answer: The value was “remarkable upregulation of neurogenesis pathways”.

Question: What about the “proteostasis pathways (protein folding and degradation), GSEA” value [4, 6] of the same compound?
Answer: The value was “enrichment of several proteostasis pathways”.

Question: What about the “ribosomal and translation pathways, GSEA” value [4, 6] of the same compound?
Answer: The value was “significantly attenuated”.

Question: What about the “neuronal cells in the skeletal muscles (GSEA, MsigDB mouse cell type signature sets)” value ([4]; old treated vs old untreated mice) of the same compound?
Answer: Its value is “increases neuronal cells”.

Question: What about the metabolic stability [5] of the same compound?
Answer: The metabolic stability was “improved”.
